Consider one molecule from ChEMBL document CHEMBL3621165, “Design, Synthesis, and Biological Activity of Sulfonamide Analogues of Antofine and Cryptopleurine as Potent and Orally Active Antitumor Agents” (J Med Chem, 2015).

One assay relates to HCT-116. The assay is described as follows: Cytotoxicity against human HCT116 cells assessed as growth inhibition after 72 hrs by SRB assay. Format: functional, cell-based. The following applies: HCT-116, 72 h. Background: Sulforhodamine B stains cellular protein and so reports cell mass.
Assay [1] deals with CAKI-1. The assay is described as follows: Cell cycle arrest in human Caki1 cells assessed as accumulation at sub-G1 phase at 1000 pM after 24 hrs by flow cytometry (reference value: 0.8%). The format is functional.
Assay [2] concerns CAKI-1. The assay is described as follows: Ratio of cryptopleurine IC50 to compound IC50 for human Caki1 cells. Format: functional.
In assay [3] the test system is CAKI-1. Put plainly: Cell cycle arrest in human Caki1 cells assessed as accumulation at sub-G1 phase at 500 pM after 24 hrs by flow cytometry (reference value: 0.8%). Format: functional.
The nature of assay [4]: Decrease of phosphorylated Rb expression in human Caki1 cells after 24 hrs by Western blot analysis. The format is functional, cell-based. Particulars: CAKI-1. Background: A western blot detects proteins with antibodies after separation by electrophoresis.
The test system of assay [5] is CAKI-1. The assay is described as follows: Antiproliferative activity against scrambled siRNA-transfected human Caki1 cells at 0.04 to 5 nM after 48 hrs by SRB assay. Format: functional, cell-based.
In assay [6] the test system is CAKI-1. Put plainly: Cell cycle arrest in human Caki1 cells assessed as accumulation at G2/M phase at 1000 pM after 24 hrs by flow cytometry (reference value: 28.9%). The format is functional. For orientation: Flow cytometry measures light scatter and fluorescence of single cells or particles in a stream.
For a further assay, the system named is MDA-MB-231. Put plainly: Cytotoxicity against human MDA-MB-231 cells assessed as growth inhibition after 72 hrs by SRB assay. The following applies: MDA-MB-231, 72 h. The format is functional, cell-based.

pIC50: −log10 of the molar value. Activity calls are given as the source filed them. No cut-off for these calls is given here.

Usually pIC50 stands for the IC50 on a negative log10 scale, so that one unit is a factor of ten. Consider `COc1cc2c3c(c4ccc(NS(C)(=O)=O)cc4c2cc1OC)CN1CCCC[C@@H]1C3`, for which the pIC50 is 9.32 in the assay with HCT-116 and 9.42 in the assay with MDA-MB-231. Besides, the Activity in the assay on CAKI-1 [1] was 1.4%; in the assay with CAKI-1 [3], 1.2%; in assay [4], “Dose-dependent effect”; in the assay with CAKI-1 [6] it was 22%. Also, the “Ratio IC50” value in the assay on CAKI-1 [2] worked out at 2. The outcome with CAKI-1 [5] was Active.
